Melting point data for 37 molecules are collected here from US8697873B2, “Amide substituted imidazopyridines, imidazoquinolines, and imidazonaphthyridines” (3M Innovative Properties Company, priority 2004, dated 2014).

`Cc1nc2c(N)nc3ccccc3c2n1CCC(N)=O` [Example 31, 3-(4-Amino-2-methyl-1H-imidazo[4,5-c]quinolin-1-yl)propanamide] yielded a melting point of 237 to 239 °C.
For `CCCNC(=O)CCn1c(C)nc2c(N)nc3ccccc3c21` [Example 32, 3-(4-Amino-2-methyl-1H-imidazo[4,5-c]quinolin-1-yl)-N-propylpropanamide] the value was 188 to 189 °C; for `CCOCc1nc2c(N)nc3ccccc3c2n1CCCC(N)=O` [Example 33, 4-[4-Amino-2-(ethoxymethyl)-1H-imidazo[4,5-c]quinolin-1-yl]butanamide], 233 to 235 °C.
Molecule `CCCc1nc2c(N)nc3ccccc3c2n1CCCCC(=O)N1CCOCC1` [Example 34, 1-(5-Morpholin-4-yl-5-oxopentyl)-2-propyl-1H-imidazo[4,5-c]quinolin-4-amine] came in with a melting point of 178 to 179 °C.
For `CCCc1nc2c(N)nc3ccccc3c2n1CCCCC(N)=O` [Example 35, 5-(4-Amino-2-propyl-1H-imidazo[4,5-c]quinolin-1-yl)pentanamide] the value was 202 to 203 °C.
The same measure for `COCCc1nc2c(N)nc3ccccc3c2n1CCCCC(=O)N1CCOCC1` [Example 36, 2-(2-Methoxyethyl)-1-(5-morpholin-4-yl-5-oxopentyl)-1H-imidazo[4,5-c]quinolin-4-amine]: 128 to 129 °C; for `CCCc1nc2c(N)nc3cccnc3c2n1CCCC(=O)N1CCOCC1` [Example 37, 1-(4-Morpholin-4-yl-4-oxobutyl)-2-propyl-1H-imidazo[4,5-c][1,5]naphthyridin-4-amine]: 196 to 197 °C; for `CCOCc1nc2c(N)nc3cccnc3c2n1CCCC(=O)N1CCOCC1` [Example 38, 2-(Ethoxymethyl)-1-(4-morpholin-4-yl-4-oxobutyl)-1H-imidazo[4,5-c][1,5]naphthyridin-4-amine]: 156 to 157 °C.
For `CCOCc1nc2c(N)nc3cccnc3c2n1CCCC(N)=O` [Example 39, 4-[4-Amino-2-(ethoxymethyl)-1H-imidazo[4,5-c][1,5]naphthyridin-1-yl]butanamide] the value was 231 to 232 °C.
The molecule `CCCc1nc2c(N)nc(C)c(C)c2n1CCCC(N)=O` [Example 40, 4-(4-Amino-6,7-dimethyl-2-propyl-1H-imidazo[4,5-c]pyridin-1-yl)butanamide] gave a melting point of 226 to 228 °C.
For `CCCc1nc2c(N)nc(C)c(C)c2n1CCCC(=O)N1CCOCC1` [Example 41, 6,7-Dimethyl-1-(4-morpholin-4-yl-4-oxobutyl)-2-propyl-1H-imidazo[4,5-c]pyridin-4-amine] the value was 164 to 165 °C; for `CCc1nc2c(N)nc(C)c(C)c2n1CCCC(N)=O` [Example 42, 4-(4-Amino-2-ethyl-6,7-dimethyl-1H-imidazo[4,5-c]pyridin-1-yl)butanamide], 228 to 230 °C; for `CCc1nc2c(N)nc(C)c(C)c2n1CCCC(=O)N1CCOCC1` [Example 43, 2-Ethyl-6,7-dimethyl-1-(4-morpholin-4-yl-4-oxobutyl)-1H-imidazo[4,5-c]pyridin-4-amine], 209 to 210 °C.
For `CCOCc1nc2c(N)nc(C)c(C)c2n1CCCC(N)=O` [Example 44, 4-[4-Amino-2-(ethoxymethyl)-6,7-dimethyl-1H-imidazo[4,5-c]pyridin-1-yl]butanamide] the value was 199 to 200 °C; for `CCOCc1nc2c(N)nc(C)c(C)c2n1CCCC(=O)N1CCOCC1` [Example 45, 2-(Ethoxymethyl)-6,7-dimethyl-1-(4-morpholin-4-yl-4-oxobutyl)-1H-imidazo[4,5-c]pyridin-4-amine], 156 to 158 °C; for `CCCCc1nc2c(N)nc3ccccc3c2n1CCCCC(=O)N1CCOCC1` [Example 46, 2-Butyl-1-(5-morpholin-4-yl-5-oxopentyl)-1H-imidazo[4,5-c]quinolin-4-amine], 141 to 143 °C.
The molecule `Cc1nc2c(N)nc3ccccc3c2n1CCCCC(=O)N1CCOCC1` [Example 47, 2-Methyl-1-(5-morpholin-4-yl-5-oxopentyl)-1H-imidazo[4,5-c]quinolin-4-amine] showed a melting point of 218 to 219 °C.
The same measure for `CCOCc1nc2c(N)nc3ccccc3c2n1CCCCC(=O)N1CCOCC1` [Example 48, 2-(Ethoxymethyl)-1-(5-morpholin-4-yl-5-oxopentyl)-1H-imidazo[4,5-c]quinolin-4-amine]: 128 to 129 °C; for `CCOCc1nc2c(N)nc3ccccc3c2n1CCCCC(N)=O` [Example 49, 5-[4-Amino-2-(ethoxymethyl)-1H-imidazo[4,5-c]quinolin-1-yl]pentanamide]: 198 to 200 °C.
For `CCCc1nc2c(N)nc3c(c2n1CCCCC(=O)N1CCOCC1)CCCC3` [Example 50, 1-(5-Morpholin-4-yl-5-oxopentyl)-2-propyl-6,7,8,9-tetrahydro-1H-imidazo[4,5-c]quinolin-4-amine] the value was 158 to 160 °C; for `CCCc1nc2c(N)nc3ccccc3c2n1CCC(=O)N(C)C` [Example 51, 3-(4-Amino-2-propyl-1H-imidazo[4,5-c]quinolin-1-yl)-N,N-dimethylpropanamide], 207 to 209 °C; for `CCCCc1nc2c(N)nc3ccccc3c2n1CCCCC(N)=O` [Example 52, 5-(4-Amino-2-butyl-1H-imidazo[4,5-c]quinolin-1-yl)pentanamide], 219 to 221 °C.
The same measure for `CCCc1nc2c(N)nc3cccnc3c2n1CCCCCC(=O)N1CCOCC1` [Example 53, 1-(6-Morpholin-4-yl-6-oxohexyl)-2-propyl-1H-imidazo[4,5-c][1,5]naphthyridin-4-amine]: 148 to 150 °C; for `CCCc1nc2c(N)nc3cccnc3c2n1CCCCCC(N)=O` [Example 54, 6-(4-Amino-2-propyl-1H-imidazo[4,5-c][1,5]naphthyridin-1-yl)hexanamide]: 216.5 to 217.5 °C; for `CCc1nc2c(N)nc3cccnc3c2n1CCCCCC(=O)N1CCOCC1` [Example 55, 2-Ethyl-1-(6-morpholin-4-yl-6-oxohexyl)-1H-imidazo[4,5-c][1,5]naphthyridin-4-amine]: 163 to 165 °C.
The molecule `CCc1nc2c(N)nc3cccnc3c2n1CCCCCC(N)=O` [Example 56, 6-(4-Amino-2-ethyl-1H-imidazo[4,5-c][1,5]naphthyridin-1-yl)hexanamide] had a melting point of 220 to 221 °C.
For `CCOCc1nc2c(N)nc3cccnc3c2n1CCCCCC(=O)N1CCOCC1` [Example 57, 2-(Ethoxymethyl)-1-(6-morpholin-4-yl-6-oxohexyl)-1H-imidazo[4,5-c][1,5]naphthyridin-4-amine] the value was 168 to 170 °C.
The same measure for `CCOCc1nc2c(N)nc3cccnc3c2n1CCCCCC(N)=O` [Example 58, 6-[4-Amino-2-(ethoxymethyl)-1H-imidazo[4,5-c][1,5]naphthyridin-1-yl]hexanamide]: 215 to 217 °C.
For `CCCc1nc2c(N)nc3ccccc3c2n1CC(N)=O` [Example 59, 2-(4-Amino-2-propyl-1H-imidazo[4,5-c]quinolin-1-yl)acetamide] the value was more than 300 °C; for `CCc1nc2c(N)nc3ccccc3c2n1CC(C)(C)C(N)=O` [Example 60, 3-(4-Amino-2-ethyl-1H-imidazo[4,5-c]quinolin-1-yl)-2,2-dimethylpropanamide], 279 to 281 °C.
For `Cc1nc2c(N)nc3ccccc3c2n1CC(C)(C)C(N)=O` [Example 61, 3-(4-Amino-2-methyl-1H-imidazo[4,5-c]quinolin-1-yl)-2,2-dimethylpropanamide], the melting point is 284 to 287 °C.
The same measure for `CCCCc1nc2c(N)nc3ccccc3c2n1CC(C)(C)C(N)=O` [Example 63, 3-(4-Amino-2-butyl-1H-imidazo[4,5-c]quinolin-1-yl)-2,2-dimethylpropanamide]: 231 to 233 °C; for `CCOCc1nc2c(N)nc3ccccc3c2n1CC1(C(N)=O)CC1` [Example 64, 1-{[4-Amino-2-(ethoxymethyl)-1H-imidazo[4,5-c]quinolin-1-yl]methyl}cyclopropanecarboxamide]: 230.5 to 232.5 °C.
For `CCCc1nc2c(N)nc3ccccc3c2n1CC1(C(N)=O)CCC1` [Example 65, 1-[(4-Amino-2-propyl-1H-imidazo[4,5-c]quinolin-1-yl)methyl]cyclobutanecarboxamide] the value was 234 to 237 °C.
For `CCc1nc2c(N)nc3ccccc3c2n1CC1(C(N)=O)CCC1` [Example 66, 1-[(4-Amino-2-ethyl-1H-imidazo[4,5-c]quinolin-1-yl)methyl]cyclobutanecarboxamide] the value was 227 to 230 °C; for `CCOCc1nc2c(N)nc3ccccc3c2n1CC1(C(N)=O)CCCCC1` [Example 67, 1-{[4-Amino-2-(ethoxymethyl)-1H-imidazo[4,5-c]quinolin-1-yl]methyl}cyclohexanecarboxamide], 221 to 223 °C.
For the molecule `CC(C)(Cn1c(CO)nc2c(N)nc3ccccc3c21)C(N)=O` [Example 68, 3-[4-Amino-2-(hydroxymethyl)-1H-imidazo[4,5-c]quinolin-1-yl)-2,2-dimethylpropanamide], the melting point lay in the range of 201 to 203 °C.

As a reminder, the melting point is the temperature, or range, at which the solid turns liquid.
